ChEMBL document CHEMBL5380860, “Design, Synthesis, and Antitumor Activity of Potent and Selective EGFR L858R/T790M Inhibitors and Identification of a Combination Therapy to Overcome Acquired Resistance in Models of Non-small-cell Lung Cancer” (J Med Chem, 2023)
Active and inactive are the calls of the source. The rule behind the calls is not given here.

Key:
HCC827 = experiment: Induction of apoptosis in human HCC827 cells assessed as induction of caspase-3 cleavage pretreated with compound for 4 hrs followed by incubation with EGF for 10 mins by western blot analysis; assay type: functional, cell-based; settings: dose 0.1-10 µM, time 250.0 min
[1] = target: T1, Epidermal growth factor receptor (Homo sapiens, UniProt P00533); experiment: Inhibition of wild type EGFR in human A549 cells assessed as inhibition of EGF-induced EGFR phosphorylation at Tyr1068 residue at 10 uM pretreated with compound for 4 hrs followed by incubation with EGF for 10 mins by western blot analysis; assay type: toxicity, cell-based; settings: a549, 4.167 h, time 250 min
NCI-H1975 [2] = experiment: Induction of apoptosis in human NCI-H1975 cells assessed as induction of PARP cleavage pretreated with compound for 4 hrs followed by incubation with EGF for 10 mins by western blot analysis; assay type: functional, cell-based; settings: dose 0.1-10 µM, time 250.0 min
[3] = AUC (0 to infinity) in Sprague-Dawley rat at 1 mg/kg, iv by LC-MS analysis; assay type: ADME, organism-based; parameters: dose 1 mg/kg, route iv; settings: in vivo
[4] = target: Proto-oncogene tyrosine-protein kinase Src (Homo sapiens, UniProt P12931); experiment: Inhibition of human wild type partial length Src kinase (L240 to L536 residues) expressed in bacterial expression system assessed as residual activity at 1 uM by KINOMEscan analysis
[5] = target: Epidermal growth factor receptor (Homo sapiens, UniProt P00533, T790M); experiment: Inhibition of human partial length EGFR (R669 to G1022 residues) T790M mutant expressed in mammalian expression system by KINOMEscan analysis
[6] = Toxicity in BALB/c mouse xenografted with N-(3-((6-Fluoro-2-((4-(4-methylpiperazin-1-yl)phenyl)amino)quinazolin-4-yl)amino)phenyl)acrylamide-resistant human NCI-H1975 cells assessed as changes in liver morphological changes at 20 mg/kg/day, ip in presence of ACK1 inhibitor, dasatinib by hematoxylin-eosin staining based analysis; assay type: organism-based; settings: in vivo
NCI-H1975 [7] = experiment: Antitumor activity against human NCI-H1975 cells xenografted in BALB/c mouse assessed as decrease in Ki-67 expression in tumor at 5 to 20 mg/kg/day, ip by immunohistochemistry; assay type: functional, organism-based; settings: dose 5-20 mg/kg/day
[8] = system: Epidermal growth factor receptor (Homo sapiens), P00533 [L858R,T790M]; experiment: Inhibition of EGFR L858R/T790M mutant in human NCI-H1975 cells assessed as inhibition of EGF-induced EGFR phosphorylation at Tyr1068 residue at 1 uM pretreated with compound for 4 hrs followed by incubation with EGF for 10 mins by western blot analysis; assay type: cell-based; settings: time 250.0 min
[9] = target: T1, Epidermal growth factor receptor; experiment: Inhibition of human wild type partial length EGFR (R669 to V1011 residues) expressed in bacterial expression system by KINOMEscan analysis; assay type: toxicity
A-431 [10] = experiment: Inhibition of clonogenicity in human A-431 cells assessed as inhibition of colony formation at 0.1 to 10 uM incubated for 14 days by crystal violet staining based analysis; assay type: toxicity, cell-based; settings: a-431, 336 h, dose 0.1-10 µM, time 14 day
[11] = target: T2, STE20-like serine/threonine-protein kinase (Homo sapiens, UniProt Q9H2G2); experiment: Inhibition of human wild type partial length SLK (S14 to A307 residues) expressed in bacterial expression system by KINOMEscan analysis
Target sequence in this assay (Q9H2G2 whole entry, the tested form may be a part): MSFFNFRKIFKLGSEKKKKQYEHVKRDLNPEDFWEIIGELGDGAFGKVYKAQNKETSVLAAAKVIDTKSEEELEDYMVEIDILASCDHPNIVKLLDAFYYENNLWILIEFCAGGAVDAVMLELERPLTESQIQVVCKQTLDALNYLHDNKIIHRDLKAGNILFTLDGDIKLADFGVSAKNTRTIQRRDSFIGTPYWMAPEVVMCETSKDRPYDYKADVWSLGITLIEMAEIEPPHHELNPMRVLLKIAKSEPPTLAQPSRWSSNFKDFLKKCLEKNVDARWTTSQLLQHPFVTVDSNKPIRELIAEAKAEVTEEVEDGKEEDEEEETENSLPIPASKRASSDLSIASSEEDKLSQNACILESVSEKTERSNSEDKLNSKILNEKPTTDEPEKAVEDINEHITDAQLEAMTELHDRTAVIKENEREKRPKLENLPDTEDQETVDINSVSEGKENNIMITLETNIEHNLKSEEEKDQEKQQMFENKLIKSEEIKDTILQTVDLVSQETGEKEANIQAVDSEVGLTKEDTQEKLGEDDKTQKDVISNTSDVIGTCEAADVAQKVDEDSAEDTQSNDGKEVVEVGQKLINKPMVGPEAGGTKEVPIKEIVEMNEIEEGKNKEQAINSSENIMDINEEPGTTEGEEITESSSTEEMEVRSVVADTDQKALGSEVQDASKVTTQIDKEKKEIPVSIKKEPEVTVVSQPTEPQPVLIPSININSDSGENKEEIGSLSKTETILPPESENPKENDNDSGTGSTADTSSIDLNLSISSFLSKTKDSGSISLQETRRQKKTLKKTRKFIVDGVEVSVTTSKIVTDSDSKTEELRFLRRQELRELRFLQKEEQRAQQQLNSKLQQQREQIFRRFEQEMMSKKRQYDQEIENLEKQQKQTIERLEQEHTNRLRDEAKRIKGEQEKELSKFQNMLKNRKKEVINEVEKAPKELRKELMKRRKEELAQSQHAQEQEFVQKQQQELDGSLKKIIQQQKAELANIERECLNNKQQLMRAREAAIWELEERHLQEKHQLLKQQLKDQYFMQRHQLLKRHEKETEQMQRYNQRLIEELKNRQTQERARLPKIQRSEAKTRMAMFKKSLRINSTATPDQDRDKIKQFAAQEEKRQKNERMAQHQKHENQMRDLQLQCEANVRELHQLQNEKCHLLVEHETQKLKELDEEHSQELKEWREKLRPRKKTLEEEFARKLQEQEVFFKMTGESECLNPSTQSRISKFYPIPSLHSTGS

A549 = experiment: Inhibition of cell migration in human A549 cells at 10 uM incubated for 48 hrs by scratch wound healing assay; assay type: toxicity, cell-based; settings: a549, 48 h
NCI-H1975 [12] = experiment: Antiproliferative activity against human NCI-H1975 cells harboring EGFR L858R/T790M mutant assessed as reduction in cell viability measured after 72 hrs by MTT assay; assay type: functional, cell-based; settings: NCI-H1975, 72 h
[13] = target: T2, STE20-like serine/threonine-protein kinase; experiment: Inhibition of human wild type partial length SLK (S14 to A307 residues) expressed in bacterial expression system assessed as residual activity at 1 uM by KINOMEscan analysis
Target sequence in this assay (Q9H2G2 whole entry, looked up, the tested form may be a part): as the sequence (Q9H2G2 whole entry, the tested form may be a part) above

NCI-H1975 [14] = experiment: Antitumor activity against human NCI-H1975 cells xenografted in ip dosed BALB/c mouse assessed as decrease in tumor weight; assay type: functional, organism-based; settings: dose 5-20 mg/kg/day
Mus musculus [15] = experiment: In vivo inhibition of EGFR L858R/T790M mutant in ip dosed NCI-H1975 cells xenografted BALB/c mouse assessed as inhibition of EGFR phosphorylation at Tyr1068 residue in tumor by immunoblot analysis; assay type: functional, organism-based; settings: dose 5-20 mg/kg/day
[16] = Cytotoxicity against human A-431 cells harboring wild type EGFR assessed as reduction in cell viability measured after 72 hrs by MTT assay; assay type: toxicity, cell-based
NCI-H1975 [17] = experiment: Inhibition of cell migration in human NCI-H1975 cells incubated for 48 hrs by scratch wound healing assay; assay type: functional, cell-based; settings: dose 0.1-10 µM
[18] = Toxicity in BALB/c mouse xenografted with human NCI-H1975 cells assessed as change in spleen morphological changes at 5 to 20 mg/kg/day, ip by hematoxylin-eosin staining based analysis; assay type: organism-based; settings: in vivo, dose 5-20 mg/kg/day
A-431 [19] = experiment: Induction of apoptosis in human A-431 cells assessed as induction of PARP cleavage at 0.1 to 10 uM pretreated with compound for 4 hrs followed by incubation with EGF for 10 mins by western blot analysis; assay type: toxicity, cell-based; settings: a-431, 4.167 h, dose 0.1-10 µM, time 250 min
[20] = system: Epidermal growth factor receptor (Homo sapiens), P00533 [L858R]; experiment: Inhibition of human partial length EGFR (R669 to V1011 residues) L858R mutant expressed in bacterial expression system assessed as residual activity at 1 uM by KINOMEscan analysis
Mus musculus [21] = experiment: In vivo inhibition of EGFR L858R/T790M mutant in N-(3-((6-Fluoro-2-((4-(4-methylpiperazin-1-yl)phenyl)amino)quinazolin-4-yl)amino)phenyl)acrylamide-resistant human NCI-H1975 cells xenografted BALB/c mouse assessed as inhibition of EGFR phosphorylation at Tyr1068 residue in tumor at 20 mg/kg/day, ip in presence of ACK1 inhibitor, dasatinib by immunoblot analysis; assay type: functional, organism-based

Sequence of Proto-oncogene tyrosine-protein kinase Src (P12931 2-536 limits assumed): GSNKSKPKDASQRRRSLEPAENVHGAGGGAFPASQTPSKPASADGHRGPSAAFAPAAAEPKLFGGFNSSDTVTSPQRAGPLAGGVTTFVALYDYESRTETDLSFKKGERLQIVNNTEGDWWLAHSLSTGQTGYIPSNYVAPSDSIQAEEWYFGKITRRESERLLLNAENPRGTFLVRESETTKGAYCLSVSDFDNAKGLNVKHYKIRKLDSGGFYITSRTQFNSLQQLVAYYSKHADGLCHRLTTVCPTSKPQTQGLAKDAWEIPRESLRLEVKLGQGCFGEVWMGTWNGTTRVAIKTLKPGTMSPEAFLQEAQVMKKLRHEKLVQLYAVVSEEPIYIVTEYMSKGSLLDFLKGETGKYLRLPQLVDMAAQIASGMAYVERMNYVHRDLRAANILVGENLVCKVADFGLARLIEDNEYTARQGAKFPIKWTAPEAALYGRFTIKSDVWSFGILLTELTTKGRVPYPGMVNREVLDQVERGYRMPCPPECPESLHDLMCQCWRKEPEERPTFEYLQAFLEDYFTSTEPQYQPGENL

C=CC(=O)Nc1cccc(Nc2nc(Nc3ccc(N4CCN(C)CC4)cc3)nc3ccc(F)cc23)c1
Activity (HCC827): Dose-Dependent Effect | inhibition (INH) [1]: Not Active | Activity (NCI-H1975 [2]): Dose-Dependent Effect | AUC(0-inf) [3]: 1050 ng·h/mL | Activity [4]: 20% | IC50 [5]: 6.7 nM | Activity [6]: Non-Toxic | Activity (NCI-H1975 [7]): Active | inhibition [8]: Active | IC50 [9]: 1290 nM | Activity (A-431 [10]): Non-Toxic | IC50 [11]: 892 nM | Activity (A549): Non-Toxic | IC50 (NCI-H1975 [12]): 19 nM | Activity [13]: 29% | Activity (NCI-H1975 [14]): Dose-Dependent Effect | inhibition (Mus musculus [15]): Dose-Dependent Effect | IC50 at 72 h [16]: 2490 nM | inhibition (NCI-H1975 [17]): Dose-Dependent Effect | Activity [18]: Non-Toxic | Activity (A-431 [19]): Non-Toxic | Activity [20]: 1% | inhibition (Mus musculus [21]): Active
